From PubChem BioAssay (NCI)
Values joined by “and” are separate entries in the source; they are usually repeats but may differ in a detail not shown here. Identical values can stand only once.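 Each compound was tested at five concentrations against cells in 96-well plates for 48 hours. The concentration for 50% growth inhibition is given as GI50. TGI denotes the concentration required for complete inhibition of growth.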

Tests used:
Test in all cases: NCI-60 cell line screen, 48 h
[1] = test system: DLD-1 colon
[2] = test system: DMS 273 small cell lung
[3] = test system: M19-MEL melanoma
[4] = test system: KM20L2 colon
[5] = test system: HOP-18 NSCLC
[6] = test system: SNB-78 CNS
[7] = test system: RXF-631 renal
[8] = test system: MDA-MB-435
[9] = test system: MDA-N

`O=C([O-])c1ccc([I+]c2ccccc2)cc1` was tested, and the TGI [1] was > 100 µM, the TGI [2] was > 100 µM and the TGI [3] was > 100 µM. The TGI [4] was > 100 µM, the TGI [5] was > 100 µM and the TGI [6] was > 100 µM. The TGI [7] was > 100 µM.
Molecule `CN(C)CCCOc1ccc(NC2=C(Cl)C(=O)C(Nc3ccc(OCCCN(C)C)cc3)=C(Cl)C2=O)cc1` has a GI50 [8] of 0.501 µM and a TGI [8] of 1.05 µM.
`O=[N+]([O-])/C=C/c1ccc2ccccc2c1` was tested, and the TGI [8] was 4.58 µM.
`NC(=O)c1nc(-c2c(F)cccc2Cl)oc1Nc1ccc(C(=O)N2CCOCC2)cc1` was tested, and the GI50 [8] was 2.03 µM and the TGI [8] was > 100 µM.
`CCN(CC)CCNc1n[n+]([O-])c2cc([N+](=O)[O-])ccc2[n+]1[O-]` was tested, and the TGI [9] was 2.48 µM and 1.65 µM and 1.2 µM and the TGI [8] was 2.71 µM and 2.37 µM and 2.29 µM.
`NC1=NC(c2ccccc2Cl)c2c(n[nH]c2N)N1` (configuration not stated) was tested, and the GI50 [8] was 15 µM and the TGI [8] was > 100 µM.
With `Cc1ccc(C(=O)Nc2ccc(Oc3cc4cnn(C)c4cc3-c3cn[nH]c3)c(F)c2)c(=O)n1-c1ccc(F)cc1` the GI50 [8] was 3.23 µM and the TGI [8] was > 100 µM.
`CN(C)C1C(=O)C(C(N)=O)=C(O)C2(O)C(=O)C3=C(O)c4c(O)cccc4C(C)(O)C3CC12.[Cl][Sb]([Cl])[Cl]` (configuration not stated) gave a GI50 [8] of 2.91 µM and a TGI [8] of 10.4 µM.
`COS(=O)c1cc(Cl)cc(Cl)c1OC(=O)CSSCC(=O)Oc1c(Cl)cc(Cl)cc1S(=O)OC` (configuration not stated) showed a TGI [1] of 40.7 µM, a TGI [2] of 32.7 µM and a TGI [3] of 57.7 µM. For the same molecule, the TGI [4] was 67.2 µM, the TGI [5] was > 100 µM and the TGI [6] was 76.2 µM. The TGI [7] was 63.7 µM.
For `CCOC(=O)C1=C(C)N(NC(N)=O)C2(N)N(NC(N)=O)C(C)=C(C(=O)OCC)C12C#N` (configuration not stated), the TGI [1] was > 100 µM, the TGI [2] was > 100 µM and the TGI [3] was > 100 µM. For the same molecule, the TGI [4] was > 100 µM and the TGI [7] was > 100 µM.
With `Cc1cc(OC2OC(CO)C(O)C(O)C2O)ccc1O` (configuration not stated) the TGI [9] was > 100 µM and the TGI [8] was > 100 µM.
`S=C(Sc1ccc(Cl)cc1)Sc1ccc(Cl)cc1` showed a GI50 [8] of 1.92 µM and a TGI [8] of 4.9 µM.
`COc1ccc(/C=C/C(=O)c2c(-c3ccccc3)nn(C)c(=O)c2N2CCCCC2)cc1` was tested, and the TGI [1] was 82.6 µM, the TGI [2] was > 100 µM and the TGI [3] was 79.3 µM. The TGI [4] was 33.8 µM, the TGI [5] was 73.9 µM and the TGI [7] was > 100 µM.
With `C#COc1cccc(Nc2ncnc3cc(NC(=O)[C@@H](C)Cl)ccc23)c1` the GI50 [8] was 1.65 µM and the TGI [8] was 4.66 µM.
With `OC1=CN=C(c2ccccc2)Oc2ccccc21` the TGI [1] was > 100 µM, the TGI [2] was > 100 µM and the TGI [3] was > 100 µM. For the same molecule, the TGI [4] was > 100 µM, the TGI [6] was > 100 µM and the TGI [7] was > 100 µM.
In the case of `Cc1ccc2ccc3c4ccccc4ccc3c2c1`, the GI50 [8] is reported as 18.1 µM and the TGI [8] is reported as 71 µM.
`Nc1ncnc2c1c(-c1ccc(Oc3ccccc3)cc1)nn2CC1SSCC1O` (configuration not stated) gave a GI50 [8] of 0.121 µM and a TGI [8] of 0.47 µM.
For `C1CN2CCO[SiH](O1)OCC2`, the TGI [1] was > 100 µM, the TGI [2] was > 100 µM and the TGI [3] was > 100 µM. The TGI [4] was > 100 µM, the TGI [5] was > 100 µM and the TGI [6] was > 100 µM.
For `CNC(=O)OCc1nc(SSc2nc(COC(=O)NC)c(COC(=O)NC)n2C)n(C)c1COC(=O)NC`, the TGI [1] was > 100 µM, the TGI [2] was > 100 µM and the TGI [3] was > 100 µM. For the same molecule, the TGI [4] was > 100 µM, the TGI [5] was > 100 µM and the TGI [6] was > 100 µM. For the same molecule, the TGI [7] was > 100 µM.
Molecule `CCCCCCCCCCCCCCCC(=O)OCC1OC(n2cc(F)c(=O)[nH]c2=O)C(NC(=O)OCc2ccccc2)C(O)C1O` (configuration not stated) has a TGI [2] of 32.4 µM, a TGI [3] of 40.5 µM and a TGI [4] of 41.9 µM. The TGI [5] was 37.8 µM, the TGI [6] was 52.1 µM and the TGI [7] was 34.9 µM.
`CCc1c(OC(C)=O)c2c(NC3OC(COC(C)=O)C(OC(C)=O)C(OC(C)=O)C3OC(C)=O)nc(SC)nc2oc1=O` (configuration not stated) was tested, and the TGI [1] was > 100 µM, the TGI [3] was > 100 µM and the TGI [4] was > 100 µM. For the same molecule, the TGI [5] was > 100 µM, the TGI [6] was > 100 µM and the TGI [7] was > 100 µM.
`C[C@]12CCc3nc(Nc4ccc(O)cc4)sc3C1=CC[C@@H]1[C@@H]2CC[C@]2(C)/C(=N/NC(N)=S)CC[C@@H]12` was tested, and the GI50 [8] was 0.664 µM and the TGI [8] was 2.05 µM.
For `OCc1ccc(-c2ccc(-c3ccc(CO)o3)o2)o1`, the GI50 [8] was > 100 µM and the TGI [8] was > 100 µM.
In the case of `N=C(N)n1cc(/C=N/N=C(N)N)cn1`, the TGI [9] is reported as > 100 µM and the TGI [8] is reported as > 100 µM.
Molecule `COc1cc2c(c3c1c(=O)c1ccccc1n3C)C=C([N+](=O)[O-])C(C)(C)O2` has a TGI [8] of 0.577 µM.
In the case of `O=C1Nc2ccc(-c3cccnc3)cc2/C1=C/c1cc(Br)c(O)c(Br)c1`, the GI50 [8] is reported as 4.6 µM and the TGI [8] is reported as > 21.7 µM.
For `[O-][n+]1c2cccc(O)c2[n+]([O-])c2cccc(O)c21`, the TGI [9] was > 100 µM and the TGI [8] was > 100 µM.
In the case of `C[n+]1cn(CC(=O)c2ccccc2)c(C(N)=O)c1N`, the TGI [1] is reported as > 100 µM, the TGI [2] is reported as > 100 µM and the TGI [3] is reported as 63.2 µM. For the same molecule, the TGI [4] was > 100 µM, the TGI [5] was > 100 µM and the TGI [6] was > 100 µM. For the same molecule, the TGI [7] was > 100 µM.
For `COC(=O)c1ccc(NC(N)=NCCC(C)(C)c2ccc(C(F)(F)F)cc2)nc1`, the GI50 [8] was 1.83 µM and the TGI [8] was 4.16 µM.
With `O=C1c2cccc3c(N4CCOCC4)ccc(c23)C(=O)N1CCN1CCN(CCCCCN2CCN(CCN3C(=O)c4cccc5c(N6CCOCC6)ccc(c45)C3=O)CC2)CC1` the GI50 [8] was > 100 µM and the TGI [8] was > 100 µM.
In the case of `CCc1ccc(Oc2c(-c3ccc(OCc4ccc(Cl)cc4)cc3O)nn(C)c2C(F)(F)F)cc1`, the GI50 [8] is reported as 1.06 µM and the TGI [8] is reported as 2.25 µM.
Work on `CCN(CC)CCCC(Nc1c2ccc(Cl)cc2nc2ccc(OC)cc12)c1ccc(Cl)cc1` (configuration not stated) yielded a GI50 [8] of 0.576 µM and a TGI [8] of 1.93 µM.
Work on `N#CC(C(=O)Nc1ccccc1)C1=C(Cl)C(=O)c2ccccc2C1=O` (configuration not stated) yielded a TGI [1] of 40.2 µM, a TGI [3] of 21.8 µM and a TGI [4] of 48.9 µM. For the same molecule, the TGI [5] was 22.7 µM and the TGI [6] was 45.9 µM.
With `CC[n+]1c(-c2ccccc2)c2cc(N)ccc2c2ccc(N)cc21` the TGI [2] was 10.7 µM, the TGI [3] was 10.5 µM and the TGI [9] was 19 µM. It also gave a TGI [4] of 25.9 µM, a TGI [5] of 18.3 µM and a GI50 [8] of 1.11 µM. For the same molecule, the TGI [8] was 2.56 µM and 12.5 µM.
`O=C(CCCCN1CCN(CCCCC(=O)Nc2ccccc2C#C/C=C\C#Cc2ccccc2C(F)(F)F)CC1)Nc1ccccc1C#C/C=C\C#Cc1ccccc1C(F)(F)F` gave a GI50 [8] of 11.7 µM and a TGI [8] of 22 µM.
`CCOC(=O)C[C@@]12CCCN[C@]1(C)CCc1ccccc12` was tested, and the TGI [1] was > 100 µM, the TGI [3] was > 100 µM and the TGI [4] was > 100 µM. The TGI [5] was > 100 µM and the TGI [6] was > 100 µM.
Work on `Cc1ccccc1Nc1cc(O)c2c(=O)cc(-c3ccccc3)oc2c1` yielded a GI50 [8] of 0.315 µM and a TGI [8] of 1.93 µM.
`COc1cccc(-c2cc(=O)c3cc(N4CCN(C)CC4)ccc3[nH]2)c1` was tested, and the GI50 [9] was 0.349 µM, the TGI [9] was 0.923 µM and 4.25 µM and the GI50 [8] was 0.16 µM. For the same molecule, the TGI [8] was 0.554 µM and 0.364 µM.
Molecule `CCOC(=O)[C@@H](C)C[C@H](Cc1ccccc1)NC(=O)c1csc([C@@H](C[C@H](C(C)C)N(C)C(=O)CNC(=O)[C@H]2CCCCN2C)OC(C)=O)n1` has a GI50 [8] of 0.228 µM and a TGI [8] of 0.801 µM.
